Key:
[1] = biological target: T1, Nuclear receptor ROR-gamma (Homo sapiens, UniProt P51449)
T1 sequence (P51449 whole entry): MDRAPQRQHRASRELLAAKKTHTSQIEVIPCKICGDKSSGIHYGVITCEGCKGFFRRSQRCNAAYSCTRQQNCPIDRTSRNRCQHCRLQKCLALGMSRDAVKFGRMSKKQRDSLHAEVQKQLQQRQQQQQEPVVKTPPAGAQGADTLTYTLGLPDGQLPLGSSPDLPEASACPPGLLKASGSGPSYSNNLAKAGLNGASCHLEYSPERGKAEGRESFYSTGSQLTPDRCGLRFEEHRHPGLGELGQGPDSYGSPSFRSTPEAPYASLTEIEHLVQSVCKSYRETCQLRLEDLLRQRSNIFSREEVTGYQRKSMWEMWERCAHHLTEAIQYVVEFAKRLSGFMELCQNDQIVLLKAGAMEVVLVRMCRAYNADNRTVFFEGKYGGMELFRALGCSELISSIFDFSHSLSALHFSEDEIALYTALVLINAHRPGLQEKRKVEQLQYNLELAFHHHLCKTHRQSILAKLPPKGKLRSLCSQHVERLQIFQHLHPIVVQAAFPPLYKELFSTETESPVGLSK
Description: Inverse agonist activity at GAL4 DBD-fused RORgammat LBD (unknown origin) expressed in HG5LN cells after 18 hrs by luciferase reporter gene assay

[2] = biological target: T2, Retinoic acid receptor gamma (Homo sapiens, UniProt P13631)
T2 sequence (P13631 whole entry): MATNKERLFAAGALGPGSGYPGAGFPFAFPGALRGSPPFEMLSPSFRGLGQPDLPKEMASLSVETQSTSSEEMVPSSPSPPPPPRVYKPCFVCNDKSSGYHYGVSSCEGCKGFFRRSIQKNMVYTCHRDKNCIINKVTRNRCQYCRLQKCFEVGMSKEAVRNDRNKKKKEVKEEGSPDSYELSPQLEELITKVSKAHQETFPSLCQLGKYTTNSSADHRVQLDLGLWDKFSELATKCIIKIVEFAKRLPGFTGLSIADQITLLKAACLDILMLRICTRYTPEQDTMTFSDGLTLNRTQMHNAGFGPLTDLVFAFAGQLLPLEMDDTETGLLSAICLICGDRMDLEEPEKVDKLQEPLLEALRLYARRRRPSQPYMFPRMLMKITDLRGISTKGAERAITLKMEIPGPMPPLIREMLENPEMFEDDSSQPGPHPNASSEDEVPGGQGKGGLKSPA
Description: Inverse agonist activity at GAL4 DBD-fused RARgamma LBD (unknown origin) expressed in human HG5LN cells after 18 hrs by luciferase reporter gene assay

[3] = physchem; conditions: buffer, pH 6.5
[4] = Photocytotoxicity against human neonatal keratinocytes assessed as decrease in cell viability preincubated for 30 mins followed by 5 J/cm2 UV light irradiation for 15 mins measured after 24 hrs by neutral red dye based assay; type: toxicity; conditions: neonatal keratinocyte
[5] = in vitro; conditions: human, neonatal keratinocytes
Description: Photocytotoxicity against human neonatal keratinocytes assessed as decrease in cell viability by measuring ratio of IC50 in presence of UV to IC50 in absence of UV after 30 mins by neutral red dye based assay

Structure (SMILES) | IC50 [1] [µM] | IC50 [2] [µM] | logD [3] | Activity [4] | selectivity ratio at 0.5 h [5]
CCS(=O)(=O)c1ccc(CC(=O)Nc2nc(-c3cccc(Cl)c3)c(C(=O)c3ccccc3Cl)s2)cc1 | 0.08 | > 10 | 5.2 |  | 
O=C(O)c1ccc(-c2nn(C(=O)c3c(Cl)cccc3Cl)c3ccccc23)cc1 | 0.06 | 1.3 | 2.4 | Toxic | 
O=C(O)c1ccc(-n2nc(Oc3c(Cl)cccc3Cl)c3c(F)cccc32)cc1 | 0.26 | 0.8 | 2.8 |  | > 90
CN(Cc1ccccc1)C(=O)c1ccc2c(c1)c(Sc1c(Cl)cccc1Cl)nn2-c1ccc(C(=O)O)cc1 | > 10 | > 10 | 2.9 |  | 
O=C(O)c1ccc(-n2nc(Sc3c(Cl)cccc3Cl)c3cc(C(=O)N4CCC4)ccc32)cc1 | 1.2 | 4.1 | 1.7 |  | 
Cc1ccccc1Sc1nn(-c2ccc(C(=O)O)cc2)c2ccc(C(=O)N(C)C)cc12 | > 10 | > 10 | 1.4 |  | 
Cc1cc(C)c(Sc2nn(-c3ccc(C(=O)O)cc3)c3ccc(C(=O)N(C)C)cc23)c(C)c1 | 2.7 | > 10 | 2.1 |  | 
O=C(O)c1ccc(-n2nc(Oc3c(Cl)cccc3Cl)c3cccc(F)c32)cc1 | 0.088 | 7.6 | 2.8 |  | 30
CN(C)C(=O)c1ccc2c(c1)c(Sc1cc(Cl)ccc1Cl)nn2-c1ccc(C(=O)O)cc1 | 4.3 | > 10 | 1.9 |  | 
CN(C)C(=O)c1ccc2c(c1)c(Nc1c(Cl)cccc1Cl)nn2-c1ccc(C(=O)O)cc1 | 3.6 | > 10 | 0.9 |  | 
O=C(O)[C@H]1CC[C@H](n2nc(Oc3c(Cl)cccc3Cl)c3ccccc32)CC1 | > 10 | > 10 | 3.1 |  | 41
Cc1cc(C(=O)O)ccc1-n1nc(Oc2c(Cl)cccc2Cl)c2ccccc21 | 3.6 | 6.2 | 3 |  | 41
Cc1cccc(C)c1Sc1nn(-c2ccc(C(=O)O)cc2)c2ccc(C(=O)N(C)C)cc12 | 0.37 | > 10 | 1.6 | Toxic | 
Cc1cccc2c(Oc3c(Cl)cccc3Cl)nn(-c3ccc(C(=O)O)cc3)c12 | > 10 | > 10 | 2.6 |  | 
CCN(C)C(=O)c1ccc2c(c1)c(Sc1c(Cl)cccc1Cl)nn2-c1ccc(C(=O)O)cc1 | 6.5 | > 10 | 1.9 |  | 
CN(CCO)C(=O)c1ccc2c(c1)c(Sc1c(Cl)cccc1Cl)nn2-c1ccc(C(=O)O)cc1 | > 10 | > 10 | 0.8 |  | 
CN(C)C(=O)c1ccc2c(-c3ccc(C(=O)O)cc3)nn(C(=O)c3c(Cl)cccc3Cl)c2c1 | 0.054 | > 10 | 1.3 |  | 
Cc1cccc2c1c(Oc1c(Cl)cccc1Cl)nn2-c1ccc(C(=O)O)cc1 | 0.82 | 1.1 | 3.6 |  | 19
O=C(O)c1cc(F)c(-n2nc(Oc3c(Cl)cccc3Cl)c3ccccc32)c(F)c1 | 0.31 | > 10 | 2.9 |  | 16
CN(C)C(=O)c1ccc2c(c1)c(Oc1c(Cl)cccc1Cl)nn2-c1ccc(C(=O)O)cc1 | 0.3 | > 10 | 1.5 |  | 
O=C(O)[C@H]1CC[C@@H](n2nc(Oc3c(Cl)cccc3Cl)c3ccccc32)CC1 | > 10 | > 10 | 3.4 |  | 108
O=C(O)c1ccc(-n2nc(Sc3c(Cl)cccc3Cl)c3cc(C(=O)N4CCCC4)ccc32)cc1 | 2.6 | > 10 | 1.9 |  | 
O=C(O)c1ccc(-n2nc([S+]([O-])c3c(Cl)cccc3Cl)c3ccccc32)cc1 (stereo unspecified) | 6.2 | 5.6 | 1.2 |  | 
O=C(O)c1ccc(-n2nc(Oc3c(Cl)cccc3Cl)c3cccnc32)cc1 | 1.2 | 3.8 | 2.3 |  | 190
CN(C)C(=O)c1ccc2c(c1)c(S(=O)(=O)c1c(Cl)cccc1Cl)nn2-c1ccc(C(=O)O)cc1 | > 10 | > 10 | 0.9 | Toxic | 

Structure (SMILES) | IC50 [1] [µM] | IC50 [2] [µM] | logD [3] | Activity [4] | selectivity ratio at 0.5 h [5]
CN(C)C(=O)c1ccc2c(c1)c(Sc1c(F)cccc1Cl)nn2-c1ccc(C(=O)O)cc1 | 5 | > 10 | 1.4 | Toxic | 
CN1CCN(C(=O)c2ccc3c(c2)c(Sc2c(Cl)cccc2Cl)nn3-c2ccc(C(=O)O)cc2)CC1 | 9.2 | 7.7 | 1 |  | 
O=C(O)c1ccc(-n2nc(Sc3c(Cl)cccc3Cl)c3ccccc32)cc1 | 2.5 | 4.4 | 2.9 | Toxic | 
O=C(O)c1ccc(-n2nc(Nc3c(Cl)cccc3Cl)c3ccccc32)cc1 | 2.5 | > 10 | 1.9 |  | 
O=C(O)c1ccc(-n2nc(Oc3c(Cl)cccc3Cl)c3ccccc32)cn1 | > 10 | > 10 | 3.7 |  | 30
CS(=O)(=O)c1ccc2c(c1)c(Oc1c(Cl)cccc1Cl)nn2-c1ccc(C(=O)O)cc1 | > 10 | 4.5 | 1.7 |  | 87
O=C(O)c1ccc(-n2nc(Oc3c(Cl)cccc3Cl)c3ccccc32)c(F)c1 | 0.24 | > 10 | 2.8 |  | 32
CN(C)C(=O)c1ccc2c(c1)c(Sc1ccccc1)nn2-c1ccc(C(=O)O)cc1 | > 10 | 3.5 | 1 |  | 
O=C(O)c1ccc(-n2nc(Sc3c(Cl)cccc3Cl)c3cc(C(=O)N4CCOCC4)ccc32)cc1 | 6 | 4.2 | 1.5 |  | 
CNC(=O)c1ccc2c(c1)c(Sc1c(Cl)cccc1Cl)nn2-c1ccc(C(=O)O)cc1 | > 10 | 2.7 | 1.2 |  | 
CN(C)C(=O)c1ccc2c(c1)c([S+]([O-])c1c(Cl)cccc1Cl)nn2-c1ccc(C(=O)O)cc1 (stereo unspecified) | > 10 | > 10 | 0.4 | Toxic | 
O=C(O)c1ccc(-n2nc(Oc3c(Cl)cccc3Cl)c3ncccc32)cc1 | 2.1 | 6.8 | 1.3 |  | 11
O=C(O)c1ccc(-n2nc(Cc3c(Cl)cccc3Cl)c3ccccc32)cc1 | 1.8 | 6.8 | 2.8 |  | 
CN(C)C(=O)c1ccc2c(c1)c(Sc1c(Cl)cccc1Cl)nn2-c1ccc(C(=O)O)cc1 | 0.59 | > 10 | 1.6 | Toxic | 
O=C(O)c1ccc(-n2nc(Oc3c(Cl)cccc3Cl)c3ccccc32)nc1 | 1.1 | 1.9 | 2.9 |  | 90
O=C(O)c1ccc(-n2nc(Oc3c(Cl)cccc3Cl)c3ccccc32)cc1 | 0.14 | 1.4 | 2.8 |  | > 62
CN(c1c(Cl)cccc1Cl)c1nn(-c2ccc(C(=O)O)cc2)c2ccccc12 | > 10 |  | 2.6 |  | 
CCc1nn(C)c(CC)c1Oc1nn(-c2ccc(C(=O)O)cc2)c2ccccc12 | 4.8 | 9.1 | 1.6 |  | 121
Cc1ccc([C@@H](NC(=O)Cc2ccc3oc([C@@H](O)c4c(C)noc4C)cc3c2)c2ccccc2)c(C)c1 | 0.044 | > 10 | 4.7 |  | 
N#Cc1ccc2c(c1)c(Oc1c(Cl)cccc1Cl)nn2-c1ccc(C(=O)O)cc1 | > 10 | 1.4 | 2.6 |  | 138
O=C(O)c1ccc(-n2nc(Sc3c(Cl)cccc3Cl)c3cc(C(=O)N4CC(F)(F)C4)ccc32)cc1 | 0.72 | > 10 | 2.3 |  | 
Clc1cccc(Cl)c1Oc1n[nH]c2ccccc12 | > 10 | 5.7 | 4.9 |  | 1.6
CN(C)C(=O)c1ccc2c(Oc3c(Cl)cccc3Cl)nn(-c3ccc(C(=O)O)cc3)c2c1 | > 10 | > 10 | 1.8 |  | 18
O=C(O)c1ccc(-n2nc(S(=O)(=O)c3c(Cl)cccc3Cl)c3ccccc32)cc1 | 4.8 | 8.4 | 1.8 |  | 
